Assays:
[1] = test system: bicistronic HCV replicon (replicon RNA, GenBank Accession No. AJ242654); assay: HCV Replicon Assay; assay type: cell-based; conditions: Hepatitis C virus, 72 h, read-out: Replicon IC50

Structure (SMILES) | melting point | IC50 [1]
CCc1cc2c(cc1F)c(C#N)c(-c1ccc(S(=O)(=O)NC(C)(C)C(F)(F)F)cn1)n2C1CCCC1 [compound 672, 6-(3-cyano-1-cyclopentyl-6-ethyl-5-fluoro-1H-indol-2-yl)-N-(1,1,1-trifluoro-2-methylpropan-2-yl)pyridine-3-sulfonamide] | 142 to 143 °C | < 0.5 µM
CCc1cc2c(cc1F)c(C(=O)O)c(-c1ccc(NS(=O)(=O)C(C)(C)C)cn1)n2C1CCCCC1 [compound 998, 2-{5-[(tert-butylsulfonyl)amino]pyridin-2-yl}-1-cyclohexyl-6-ethyl-5-fluoro-1H-indole-3-carboxylic acid] | 224 to 226 °C | 0.5 to 2 µM
Cc1cc2c(C#N)c(-c3ccc(S(=O)(=O)N[C@H](C)C(F)(F)F)cn3)n(C3CCC3)c2cc1Cl [compound 510, 6-(6-chloro-3-cyano-1-cyclobutyl-5-methyl-1H-indol-2-yl)-N-[(2R)-1,1,1-trifluoropropan-2-yl]pyridine-3-sulfonamide] | 200 to 200.5 °C | 0.5 to 2 µM
CCc1cc2c(cc1F)c(C#N)c(-c1ccc(S(=O)(=O)N[C@@H](C)C(F)(F)F)cn1)n2-c1ccc(C#N)cc1 [compound 1007, 6-[3-cyano-1-(4-cyanophenyl)-6-ethyl-5-fluoro-1H-indol-2-yl]-N-[(2S)-1,1,1-trifluoropropan-2-yl]pyridine-3-sulfonamide] | 288 to 293 °C | < 0.5 µM
CCc1cc2c(cc1F)c(C#N)c(-c1ccc(S(=O)(=O)NC(C)(C)C)cn1)n2-c1ccccc1 [compound 884, N-tert-butyl-6-(3-cyano-6-ethyl-5-fluoro-1-phenyl-1H-indol-2-yl)pyridine-3-sulfonamide] | 175 to 180 °C | < 0.5 µM
Cc1cc2c(cc1F)c(C#N)c(-c1ccc(S(=O)(=O)N[C@@H](C)C(F)(F)F)cn1)n2-c1cccnc1 [compound 893, 6-[3-cyano-5-fluoro-6-methyl-1-(pyridin-3-yl)-1H-indol-2-yl]-N-[(2S)-1,1,1-trifluoropropan-2-yl]pyridine-3-sulfonamide] | 217 to 221 °C | < 0.5 µM
Cc1cc2c(cc1F)c(C(N)=O)c(-c1ccc(S(=O)(=O)NC(C)(C)C(F)(F)F)cn1)n2C1CCOCC1 [compound 768, 5-fluoro-6-methyl-1-(tetrahydro-2H-pyran-4-yl)-2-{5-[(1,1,1-trifluoro-2-methylpropan-2-yl)sulfamoyl]pyridin-2-yl}-1H-indole-3-carboxamide] | 200 to 206 °C | < 0.5 µM
COc1ccc2c(c1)c(C#N)c(-c1ncc(S(=O)(=O)N[C@@H](C)C(F)(F)F)cn1)n2C1CCC1 [compound 569, 2-(3-cyano-1-cyclobutyl-5-methoxy-1H-indol-2-yl)-N-[(2S)-1,1,1-trifluoropropan-2-yl]pyrimidine-5-sulfonamide] | 203 to 205 °C | 0.5 to 2 µM
N#Cc1c(-c2ccc(S(=O)(=O)NC(CF)CF)cn2)n(-c2ccccn2)c2ccc(Cl)cc12 [compound 443, 6-[5-chloro-3-cyano-1-(pyridin-2-yl)-1H-indol-2-yl]-N-(1,3-difluoropropan-2-yl)pyridine-3-sulfonamide] | 187 to 188 °C | < 0.5 µM
N#Cc1c(-c2ccc(S(=O)(=O)NC(CF)CF)cn2)n(C2CCC2)c2ccc(Cl)cc12 [compound 30, 6-(5-chloro-3-cyano-1-cyclobutyl-1H-indol-2-yl)-N-(1,3-difluoropropan-2-yl)pyridine-3-sulfonamide] | 182 to 186 °C | < 0.5 µM
C[C@H](NS(=O)(=O)c1cnc(-c2c(C#N)c3ccc(F)cc3n2C2CCCC2)nc1)C(F)(F)F [compound 495, 2-(3-cyano-1-cyclopentyl-6-fluoro-1H-indol-2-yl)-N-[(2S)-1,1,1-trifluoropropan-2-yl]pyrimidine-5-sulfonamide] | 217 to 219 °C | 2 to 5 µM
CCc1cc2c(cc1F)c(C#N)c(-c1ccc(S(=O)(=O)N[C@@H](C)C(F)(F)F)cn1)n2-c1cccc(C#N)c1 [compound 1012, 6-[3-cyano-1-(3-cyanophenyl)-6-ethyl-5-fluoro-1H-indol-2-yl]-N-[(2S)-1,1,1-trifluoropropan-2-yl]pyridine-3-sulfonamide] | 244 to 248 °C | 0.5 to 2 µM
Cc1ccc2c(C#N)c(-c3ccc(S(=O)(=O)NC(C)(C)C(F)(F)F)cn3)n(C3CCCC3)c2c1 [compound 371, 6-(3-cyano-1-cyclopentyl-6-methyl-1H-indol-2-yl)-N-(1,1,1-trifluoro-2-methylpropan-2-yl)pyridine-3-sulfonamide] | 202 to 211 °C | < 0.5 µM
N#Cc1c(-c2ccc(S(=O)(=O)NC(CF)CF)cn2)n(C2CCCCC2)c2cc(F)ccc12 [compound 234, 6-(3-cyano-1-cyclohexyl-6-fluoro-1H-indol-2-yl)-N-(1,3-difluoropropan-2-yl)pyridine-3-sulfonamide] | 193 to 199 °C | < 0.5 µM
C[C@H](NS(=O)(=O)c1cnc(-c2c(C#N)c3cc(C#N)ccc3n2C2CCCC2)nc1)C(F)(F)F [compound 392, 2-(3,5-dicyano-1-cyclopentyl-1H-indol-2-yl)-N-[(2S)-1,1,1-trifluoropropan-2-yl]pyrimidine-5-sulfonamide] | 250 to 254 °C | < 0.5 µM
Cc1ccc2c(C#N)c(-c3ccc(S(=O)(=O)N[C@@H](C)C(F)(F)F)cn3)n(C(C)C)c2c1 [compound 355, 6-[3-cyano-6-methyl-1-(propan-2-yl)-1H-indol-2-yl]-N-[(2S)-1,1,1-trifluoropropan-2-yl]pyridine-3-sulfonamide] | 211 to 216 °C | < 0.5 µM
C[C@H](NS(=O)(=O)c1ccc(-c2c(C#N)c3ccc(F)cc3n2C2CCC2)nc1)C(F)(F)F [compound 395, 6-(3-cyano-1-cyclobutyl-6-fluoro-1H-indol-2-yl)-N-[(2S)-1,1,1-trifluoropropan-2-yl]pyridine-3-sulfonamide] | 171 to 172 °C | < 0.5 µM
CC(C)n1c(-c2ccc(S(=O)(=O)N[C@@H](C)C(F)(F)F)cn2)c(C#N)c2ccc(OC(F)F)cc21 [compound 359, 6-[3-cyano-6-(difluoromethoxy)-1-(propan-2-yl)-1H-indol-2-yl]-N-[(2S)-1,1,1-trifluoropropan-2-yl]pyridine-3-sulfonamide] | 163 to 166 °C | < 0.5 µM
CCc1cc2c(cc1F)c(C(N)=O)c(-c1ccc(NS(=O)(=O)C(C)(C)C)cn1)n2C1CCCCC1 [compound 999, 2-{5-[(tert-butylsulfonyl)amino]pyridin-2-yl}-1-cyclohexyl-6-ethyl-5-fluoro-1H-indole-3-carboxamide] | 264 to 265 °C | < 0.5 µM
NC(=O)c1c(-c2ccc(S(N)(=O)=O)cn2)n(C2CCC2)c2cc(OC(F)F)ccc12 [compound 568, 1-cyclobutyl-6-(difluoromethoxy)-2-(5-sulfamoylpyridin-2-yl)-1H-indole-3-carboxamide] | 230 to 231 °C | 2 to 5 µM
Cc1ccc2c(c1)c(C#N)c(-c1ncc(S(=O)(=O)NC(CF)CF)cn1)n2C(C)C [compound 567, 2-[3-cyano-5-methyl-1-(propan-2-yl)-1H-indol-2-yl]-N-(1,3-difluoropropan-2-yl)pyrimidine-5-sulfonamide] | 160 to 163 °C | < 0.5 µM
COc1cc2c(C#N)c(-c3ccc(S(=O)(=O)N[C@@H](C)C(F)(F)F)cn3)n(C3CCCC3)c2cc1C [compound 669, 6-(3-cyano-1-cyclopentyl-5-methoxy-6-methyl-1H-indol-2-yl)-N-[(2S)-1,1,1-trifluoropropan-2-yl]pyridine-3-sulfonamide] | 211 to 211.5 °C | < 0.5 µM
CC(C)n1c(-c2ccc(S(=O)(=O)N[C@@H](C)C3CC3)cn2)c(C#N)c2ccc(OC(F)(F)F)cc21 [compound 308, 6-[3-cyano-1-(propan-2-yl)-6-(trifluoromethoxy)-1H-indol-2-yl]-N-[(1S)-1-cyclopropylethyl]pyridine-3-sulfonamide] | 144 to 145 °C | 0.5 to 2 µM
C[C@H](NS(=O)(=O)c1cnc(-c2c(C#N)c3cc(F)ccc3n2C2CCCC2)nc1)C1CC1 [compound 530, 2-(3-cyano-1-cyclopentyl-5-fluoro-1H-indol-2-yl)-N-[(1S)-1-cyclopropylethyl]pyrimidine-5-sulfonamide] | 184 to 186 °C | < 0.5 µM
CCCS(=O)(=O)Nc1ccc(-c2c(C#N)c3ccc(Oc4ncccn4)cc3n2C2CCC2)nc1 [compound 271, N-{6-[3-cyano-1-cyclobutyl-6-(pyrimidin-2-yloxy)-1H-indol-2-yl]pyridin-3-yl}propane-1-sulfonamide] | 206 to 208 °C | 0.5 to 2 µM
COc1ccc(-n2c(-c3ccc(S(=O)(=O)NC(CF)CF)cn3)c(C#N)c3cc(F)ccc32)cc1 [compound 336, 6-[3-cyano-5-fluoro-1-(4-methoxyphenyl)-1H-indol-2-yl]-N-(1,3-difluoropropan-2-yl)pyridine-3-sulfonamide] | 198 to 200 °C | < 0.5 µM
Cc1ccc2c(C#N)c(-c3ccc(S(=O)(=O)NC(C)(C)C(F)(F)F)cn3)n(-c3ncccn3)c2c1 [compound 689, 6-[3-cyano-6-methyl-1-(pyrimidin-2-yl)-1H-indol-2-yl]-N-(1,1,1-trifluoro-2-methylpropan-2-yl)pyridine-3-sulfonamide] | 202 to 205 °C | 0.5 to 2 µM
COC(=O)c1c(-c2ccc(S(=O)(=O)N[C@@H](C)C(F)(F)F)cn2)n(C2CCCCC2)c2ccc(F)cc12 [compound 717, methyl 1-cyclohexyl-5-fluoro-2-(5-{[(2S)-1,1,1-trifluoropropan-2-yl]sulfamoyl}pyridin-2-yl)-1H-indole-3-carboxylate] | 232 to 240 °C | 0.5 to 2 µM
Cc1cc2c(cc1F)c(C#N)c(-c1ccc(S(=O)(=O)N[C@@H](C)C(F)(F)F)cn1)n2-c1ccc(Cl)s1 [compound 1032, 6-[1-(5-chlorothiophen-2-yl)-3-cyano-5-fluoro-6-methyl-1H-indol-2-yl]-N-[(2S)-1,1,1-trifluoropropan-2-yl]pyridine-3-sulfonamide] | 244.8 to 247.4 °C | < 0.5 µM

Reference: patent publication US8735414B2 (priority 2009, dated 2014)
